Paper PMC3409115, “Diverse Inhibitor Chemotypes Targeting Trypanosoma cruzi CYP51” (PLoS Neglected Tropical Diseases, 2012)

Target: T1, T. cruzi CYP51 (Trypanosoma cruzi, UniProt Q7Z1V1)
T1 construct: had the first 21 residues upstream of K22 replaced with the fragment MAKKKKK; His6 (C); made in house
Assay: HTS spectral-mode binding screen, type II difference spectra scored 0-5
Details: spectral mode, four serial dilutions 2 µM to 12.5 µM, 2 µM CYP51

T1 sequence (Q7Z1V1 15-481, looked up, natural form): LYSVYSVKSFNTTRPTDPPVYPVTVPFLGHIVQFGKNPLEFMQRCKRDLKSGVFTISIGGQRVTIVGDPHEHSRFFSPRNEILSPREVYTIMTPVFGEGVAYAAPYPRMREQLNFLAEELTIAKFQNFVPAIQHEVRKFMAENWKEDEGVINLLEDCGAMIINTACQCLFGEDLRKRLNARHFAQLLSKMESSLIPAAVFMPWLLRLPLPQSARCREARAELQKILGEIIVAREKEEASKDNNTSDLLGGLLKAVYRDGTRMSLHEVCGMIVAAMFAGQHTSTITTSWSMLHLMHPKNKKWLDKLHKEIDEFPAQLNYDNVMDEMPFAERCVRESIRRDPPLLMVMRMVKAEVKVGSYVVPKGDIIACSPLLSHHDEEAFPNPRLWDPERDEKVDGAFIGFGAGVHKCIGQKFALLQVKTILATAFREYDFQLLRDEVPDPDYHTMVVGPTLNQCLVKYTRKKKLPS

Row | SMILES | HTS binding score
1 | CCC(C)(C)c1ccc(OCC(=O)Nc2ccncc2)cc1 [Compound 58] | 4
2 | CCN(Cc1ccncc1)/C(S)=N/CCc1ccccc1 [Compound 59] | 5
3 | N=C(NOC(=O)/C=C/c1ccccc1Cl)c1ccncc1 [Compound 60] | 4
4 | O=C(c1ccncc1)N(Cc1ccccc1)Cc1ccccc1 [Compound 61] | 4
5 | Cc1cc(Cl)ccc1OCCCC(=O)Nc1cccnc1 [Compound 62] | 4
6 | CCCCNC(=O)c1cc(-c2ccncc2)nc2ccccc12 [Compound 63] | 5
7 | CC(C)N(CCc1ccncc1)/C(S)=N/C1CCCCC1 [Compound 64] | 5
8 | COc1ccc(-c2[nH]nc3c2C(c2cccnc2)NC3=O)cc1 (centres unmarked) [Compound 65] | 4
9 | O=C(NCCCn1ccnc1)c1ccccc1Br [Compound 66] | 4
10 | CN1C(=O)c2[nH]nc(-c3ccc(F)cc3)c2C1c1cccnc1 (centres unmarked) [Compound 67] | 5
11 | COc1ccc(-c2cc(C(=O)NCc3cccnc3)[nH]n2)cc1 [Compound 68] | 4
12 | N=C(NOC(=O)c1ccc(Br)o1)c1ccncc1 [Compound 69] | 4
13 | O=C(NCCc1ccncc1)Nc1ccc(Cl)c(Cl)c1 [Compound 70] | 4
14 | N=C(NOS(=O)(=O)c1ccc(Cl)cc1)c1ccncc1 [Compound 71] | 5
15 | CCOc1cc(S(=O)(=O)Nc2cccnc2)ccc1Cl [Compound 72] | 4
16 | COC(=O)C1=C(N)Oc2cc(C)oc(=O)c2C1c1cccnc1 (centres unmarked) [Compound 73] | 4
17 | CCCC/N=C(\S)N1CCn2cccc2C1c1cccnc1 (centres unmarked) [Compound 74] | 4
18 | O=C(c1cc(-c2ccncc2)nc2ccccc12)N1CCCCC1 [Compound 76] | 5
19 | Cc1cc(Cl)ccc1OCCCC(=O)NCc1cccnc1 [Compound 77] | 4
20 | Cc1cc(Cl)ccc1OCCCC(=O)NCc1ccncc1 [Compound 78] | 4
21 | CCn1c(C(=O)NCc2cccnc2)cc2oc3ccccc3c21 [Compound 79] | 4
22 | O=C(Cc1cccc(O)c1)Nc1cc(-c2ccncc2)cnc1O [Compound 80] | 4
23 | N#Cc1nc(COc2ccccc2)oc1NCCCn1ccnc1 [Compound 81] | 4

Row | SMILES | HTS binding score
24 | O=C(CNCc1cccnc1)Nc1ccc(OC(F)(F)F)cc1 [Compound 82] | 4
25 | CC1=NN(C(=O)COc2ccccc2C)C(O)(c2cccnc2)C1 (centres unmarked) [Compound 83] | 4
26 | COc1cccc(-c2noc(C(=O)NCCCn3ccnc3)n2)c1 [Compound 84] | 4
27 | Cc1cc(C=C2C(=O)c3ccccc3C2=O)c(C)n1-c1ccncc1 [Compound 85] | 4
28 | O=C(CCc1nc(-c2ccc(Cl)cc2)no1)Nc1cccnc1 [Compound 86] | 4
29 | Cc1[nH]c2ccccc2c1C(Nc1ccc(F)cc1)c1ccncc1 (centres unmarked) [Compound 87] | 4
30 | Cc1[nH]c2ccccc2c1C(Nc1cccc(F)c1)c1cccnc1 (centres unmarked) [Compound 88] | 4
31 | COc1ccccc1C(=O)O/N=C(\c1ccccc1)c1ccncc1 [Compound 89] | 4
32 | COc1ccc2nc3oc(C(=O)NCc4cccnc4)cc3cc2c1 [Compound 90] | 5
33 | COc1ccc(NC(=O)Nc2ccc(Cc3ccncc3)cc2)cc1 [Compound 91] | 5
34 | Cc1c(C(=O)Nc2ccncc2)sc2nc(-c3ccccc3)cn12 [Compound 92] | 4
35 | O=C(NCc1ccncc1)C(Sc1ccccc1)c1ccccc1 (centres unmarked) [Compound 93] | 4
36 | C=CCn1c(=O)c(C(=O)NCc2ccncc2)c(O)c2ccccc21 [Compound 94] | 4
37 | O=C(NCc1cccnc1)c1cc2c(=O)oc3ccccc3c2s1 [Compound 95] | 5
38 | COC(=O)c1sccc1NC(=O)CSCCc1ccncc1 [Compound 96] | 4
39 | CCc1nc(SCc2cccnc2)c(C#N)c(C(F)(F)F)c1C [Compound 97] | 5
40 | O=c1c2cnn(-c3ccc(Cl)cc3)c2ncn1Cc1cccnc1 [Compound 98] | 5
41 | Nc1cc(NC(=O)c2cccc(Cl)c2)cc(Oc2cccnc2)c1 [Compound 100] | 4
42 | O=C(CSCc1c(Cl)cccc1Cl)NCc1cccnc1 [Compound 102] | 4
43 | O=C(NCc1cccnc1)c1ccc(COc2ccccc2Cl)o1 [Compound 103] | 4
44 | CCOC(=O)C1=C(C)N(C)C(C)=C(C(=O)OCC)C1c1ccncc1 [Compound 104] | 5
45 | CC(C)(C)Nc1c(-c2ccncc2)nc2ccc(Br)cn12 [Compound 105] | 4
46 | COc1ccc(C(=O)C(OC(=O)c2ccncc2)c2ccccc2)cc1 (centres unmarked) [Compound 106] | 4

Row | SMILES | HTS binding score
47 | O=C(c1ccc(Cl)cc1)C(Oc1ccc(Cl)cc1)n1cncn1 (centres unmarked) [Compound 107] | 5
48 | COc1cc(OC)cc(C(=O)Nc2ccc(Cc3ccncc3)cc2)c1 [Compound 108] | 4
49 | Cc1nnc(NCc2cccnc2)c2c1nnn2Cc1ccc(F)cc1 [Compound 109] | 5
50 | Cc1ccc(S(=O)(=O)NCCCOC(=O)Nc2ccncc2)cc1 [Compound 110] | 5
51 | Cc1ccc(NC(=O)C23CC4CC(C2)CC(n2cncn2)(C4)C3)c(C)c1 [Compound 111] | 5
52 | Cc1ccc(Cl)cc1-n1ncc2c(NCc3cccnc3)ncnc21 [Compound 112] | 4
53 | Cc1ccccc1CSCc1ccc(C(=O)NCc2cccnc2)o1 [Compound 113] | 4
54 | CC1(C)CC(=O)C2=C(C1)c1c(ccc3ccccc13)NC2c1cccnc1 (centres unmarked) [Compound 114] | 5
55 | C/C(=N\OC(=O)c1c(-c2ccccc2Cl)noc1C)c1ccncc1 [Compound 115] | 5
56 | O=C(/C(=C/c1ccc(F)cc1)n1cncn1)c1ccc(Cl)cc1Cl [Compound 116] | 4
57 | c1cc(-c2nnn(CCOCCn3nnc(-c4ccncc4)n3)n2)ccn1 [Compound 117] | 4
58 | CCc1cc2c(cc3c(=O)n(CC(=O)NCc4cccnc4)ncn32)s1 [Compound 118] | 4
59 | c1ccc(-c2cc(NCCCn3ccnc3)n3c(n2)nc2ccccc23)cc1 [Compound 119] | 4
60 | COc1cccc(CNCc2cccnc2)c1OCc1ccc(Cl)cc1 [Compound 120] | 4
61 | O=S(=O)(c1ccc(-c2csc(-c3cccnc3)n2)cc1)N1CCCC1 [Compound 121] | 4
62 | COc1ccc(-c2nc3n(n2)C(c2cccnc2)C2=C(O)CCCC2=N3)cc1 (centres unmarked) [Compound 122] | 5
63 | Cc1ccc(Sc2c(C(=O)NCc3cccnc3)[nH]c3ccccc23)cc1 [Compound 123] | 4
64 | COCc1cc(C)nc2c1C(=O)NC(c1cccnc1)N2Cc1ccccc1 (centres unmarked) [Compound 124] | 4
65 | O=C(Nc1ccc(F)cc1)c1ccc2c(c1)C(=O)N(Cc1cccnc1)C2=O [Compound 125] | 4
66 | O=C(NCCCn1ccnc1)C1CC(c2cccc(Br)c2)=NO1 (centres unmarked) [Compound 126] | 4
67 | Cc1sc2nc(SCC(=O)NCCCn3ccnc3)nc(O)c2c1C [Compound 127] | 4
68 | OC1=C2C(=Nc3nc(-c4cccnc4)nn3C2c2ccc(Cl)cc2)CCC1 (centres unmarked) [Compound 128] | 4
69 | CC1=C(C(=O)OC2CCCC2)C(c2ccncc2)C2=C(O)CC(C)(C)CC2=N1 (centres unmarked) [Compound 129] | 4

Row | SMILES | HTS binding score
70 | O=C1C2(c3ccccc3)CN3CC1(c1ccccc1)CN(C2)C3c1cccnc1 (centres unmarked) [Compound 130] | 4
71 | O=C1C(c2ccncc2)N(CCC2=CCCCC2)C(=O)CN1C1CCCCC1 (centres unmarked) [Compound 131] | 4
72 | COc1ccc(CNc2nc3ccccc3c3nc(-c4ccncc4)nn23)cc1 [Compound 132] | 5
73 | COc1ccc(-c2nc(CSCC(=O)NCc3cccnc3)c(C)o2)cc1 [Compound 133] | 4
74 | Cn1c(SCc2nc(-c3ccc(Cl)cc3)no2)nnc1-c1ccncc1 [Compound 134] | 5
75 | O=C(Nc1ccncc1)c1ccc(NS(=O)(=O)c2cccc(Cl)c2)cc1 [Compound 135] | 4
76 | CCO/C(O)=C1/C(C)=NC2=C(C(=O)CC(c3ccccc3)C2)C1c1cccnc1 (centres unmarked) [Compound 136] | 4
77 | COc1ccc(-c2cc(C(F)(F)F)nc(NCc3cccnc3)n2)cc1OC [Compound 137] | 4
78 | O=P(Nc1cccnc1)(Oc1ccccc1Cl)Oc1ccccc1Cl [Compound 138] | 5
79 | O=C(CN(Cc1ccccc1)S(=O)(=O)c1ccccc1)NCc1ccncc1 [Compound 139] | 5
80 | Cc1n[nH]c(C)c1CCc1nc2c3ccccc3nc(NCc3cccnc3)n2n1 [Compound 140] | 5
81 | O=C(CCCCCN1C(=O)c2cccc3cccc(c23)C1=O)NCc1cccnc1 [Compound 141] | 4
82 | O=S(=O)(Nc1ccc(Cc2ccncc2)cc1)c1ccc(Br)cc1 [Compound 142] | 4
83 | O=C(NCc1cccnc1)c1cc2nc(-c3ccco3)cc(C(F)(F)Cl)n2n1 [Compound 143] | 5
84 | CC(C)c1nnc(N2C(=O)c3oc4ccccc4c(=O)c3C2c2cccnc2)s1 (centres unmarked) [Compound 144] | 4
85 | O=C(Cn1nc(-c2ccc(Cl)cc2)c2ccccc2c1=O)NCc1cccnc1 [Compound 145] | 4
86 | CCOC(=O)c1cc(-c2ccc(C)cc2)n(CCC(=O)NCc2cccnc2)c1C [Compound 146] | 5
87 | COc1ccc(S(=O)(=O)NC(C)c2ccc(-n3ccnc3)cc2)c2ccccc12 (centres unmarked) [Compound 147] | 4
88 | CC(NC(=O)C12CC3CC(C1)CC(n1cncn1)(C3)C2)C12CC3CC(CC(C3)C1)C2 (centres unmarked) [Compound 148] | 4
89 | O=S(=O)(NCc1csc(-c2cccnc2)n1)c1ccc(Br)cc1 [Compound 149] | 5
